Reference: patent US8124793B2, “Derivatives of ethylene methanedisulfonate as cancer chemotherapeutic agents” (priority 2007, dated 2012)

What was measured:
Format in all cases: cell-based
SN12C = experiment: NCI screen, growth of human tumor cells: Renal Cancer SN12C; details: SN12C (Renal Cancer), 10^−4 molar
How it was run: (§1)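 Under the NCI protocol, every compound is profiled with sixty or more data points. Each point ties a cancer type and a molar screening concentration to a percent growth value.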

K562 = experiment: NCI screen, growth of human tumor cells: Leukemia K562; details: K562 (Leukemia), 10^−4 molar
How it was run: as §1

CCRF-CEM = experiment: NCI screen, growth of human tumor cells: Leukemia CCRF-CEM; details: CCRF-CEM (Leukemia), 10^−4 molar
How it was run: as §1

HCT-15 = experiment: NCI screen, growth of human tumor cells: Colon Cancer HCT-15; details: HCT-15 (Colon Cancer), 10^−4 molar
How it was run: as §1

CAKI-1 = experiment: NCI screen, growth of human tumor cells: Renal Cancer CAKI-1; details: CAKI-1 (Renal Cancer), 10^−4 molar
How it was run: as §1

MDA-MB-435 = experiment: NCI screen, growth of human tumor cells: Breast Cancer MDA-MB-435; details: MDA-MB-435 (Breast Cancer), 10^−4 molar
How it was run: as §1

MCF 7 = experiment: NCI screen, growth of human tumor cells: Breast Cancer MCF 7; details: MCF 7 (Breast Cancer), 10^−4 molar
How it was run: as §1

UACC-257 = experiment: NCI screen, growth of human tumor cells: Melanoma UACC-257; details: UACC-257 (Melanoma), 10^−4 molar
How it was run: as §1

HCT-116 = experiment: NCI screen, growth of human tumor cells: Colon Cancer HCT-116; details: HCT-116 (Colon Cancer), 10^−4 molar
How it was run: as §1

human cancer cells = experiment: NCI screen summary over the cancers tested (negative growth of human cancer cells); details: 10^−4 M conc.; cancers with negative growth / cancers tested
Method: (§2) In the NCI screening process, each compound was tested and described by a minimum of 60 data points. The test data include, but are not limited to the type of cancer, the molar concentration used in the screen, and the percent growth of the cancer. In some cases, NMR and elemental analysis were used for structural assignment.
The derivatives in the tables are grouped using the same category as in the tables 1-6.

U-251 = experiment: NCI screen, growth of human tumor cells: CNS Cancer U-251; details: U-251 (CNS Cancer), 10^−4 molar
How it was run: as §1

NCI-H23 = experiment: NCI screen, growth of human tumor cells: Non-Small Cell Lung NCI-H23; details: NCI-H23 (Non-Small Cell Lung), 10^−4 molar
How it was run: as §1

KD488 = experiment: NCI screen, growth of human tumor cells: Lymphoma KD488
MDA-N = experiment: NCI screen, growth of human tumor cells: Breast Cancer MDA-N; details: 10^−4 molar
Method: as §2

HOP-62 = experiment: NCI screen, growth of human tumor cells: Non-Small Cell Lung HOP-62; details: HOP-62 (Non-Small Cell Lung), 10^−4 molar
How it was run: as §1

LOXIMVI = experiment: NCI screen, growth of human tumor cells: Melanoma LOXIMVI; details: LOXIMVI (Melanoma), 10^−4 molar
How it was run: as §1

SR = experiment: NCI screen, growth of human tumor cells: Leukemia SR; details: SR (Leukemia), 10^−4 molar
How it was run: as §1

MOLT-4 = experiment: NCI screen, growth of human tumor cells: Leukemia MOLT-4; details: MOLT-4 (Leukemia), 10^−4 molar
How it was run: as §1

SU-DAL-7 = experiment: NCI screen, growth of human tumor cells: Lymphoma SU-DAL-7
M14 = experiment: NCI screen, growth of human tumor cells: Melanoma M14; details: M14 (Melanoma), 10^−4 molar
How it was run: as §1

HOP-92 = experiment: NCI screen, growth of human tumor cells: Non-Small Cell Lung HOP-92
How it was run: as §1

NCI-H460 = experiment: NCI screen, growth of human tumor cells: Non-Small Cell Lung NCI-H460; details: NCI-H460 (Non-Small Cell Lung), 10^−4 molar
How it was run: as §1

RPMI-8226 = experiment: NCI screen, growth of human tumor cells: Leukemia RPMI-8226; details: RPMI-8226 (Leukemia), 10^−4 molar
How it was run: as §1

786-0 = experiment: NCI screen, growth of human tumor cells: Renal Cancer 786-0; details: 786-0 (Renal Cancer), 10^−4 molar
How it was run: as §1

SK-MEL-5 = experiment: NCI screen, growth of human tumor cells: Melanoma SK-MEL-5; details: SK-MEL-5 (Melanoma), 10^−4 molar
How it was run: as §1

PA682 = experiment: NCI screen, growth of human tumor cells: Lymphoma PA682
MDA-MB-231/ATCC = experiment: NCI screen, growth of human tumor cells: Breast Cancer MDA-MB-231/ATCC; details: MDA-MB-231/ATCC (Breast Cancer), 10^−4 molar
How it was run: as §1

RL = experiment: NCI screen, growth of human tumor cells: Lymphoma RL
AS283 = experiment: NCI screen, growth of human tumor cells: Lymphoma AS283
HOP-18 = experiment: NCI screen, growth of human tumor cells: Non-Small Cell Lung HOP-18
How it was run: as §1

OVCAR-8 = experiment: NCI screen, growth of human tumor cells: Ovarian Cancer OVCAR-8; details: OVCAR-8 (Ovarian Cancer), 10^−4 molar
How it was run: as §1

MCF7/ADR-RES = experiment: NCI screen, growth of human tumor cells: Breast Cancer MCF7/ADR-RES; details: MCF7/ADR-RES (Breast Cancer), 10^−4 molar
How it was run: as §1

SF-295 = experiment: NCI screen, growth of human tumor cells: CNS Cancer SF-295; details: SF-295 (CNS Cancer), 10^−4 molar
How it was run: as §1

O=S1(=O)OCCOS(=O)(=O)C1Cc1nc2ccccc2[nH]1 [NSC 679042, ethylene 2-benzimidazolyl-1,1-ethanedisulfonate]
percent of growth of human tumor cells (SN12C): 8%
percent of growth of human tumor cells (K562): 14%
percent of growth of human tumor cells (CCRF-CEM): 15%
percent of growth of human tumor cells (HCT-15): 4%
percent of growth of human tumor cells (CAKI-1): −2%
percent of growth of human tumor cells (MDA-MB-435): 23%
percent of growth of human tumor cells (MCF 7): 6%
percent of growth of human tumor cells (UACC-257): 12%
percent of growth of human tumor cells (HCT-116): −31%
Percentage of cancers showing negative growth cancers tested (human cancer cells): 10^−4 M conc. = 12/32 = 38%
percent of growth of human tumor cells (U-251): 21%
percent of growth of human tumor cells (NCI-H23): 16%
% Growth (KD488; KD488, 10^−4 molar): −39%
% Growth (KD488; KD488, 10^−5 molar): 39%
percent of growth of human tumor cells (MDA-N): 3%
percent of growth of human tumor cells (HOP-62): 9%
percent of growth of human tumor cells (LOXIMVI): −50%
percent of growth of human tumor cells (SR): 12%
percent of growth of human tumor cells (MOLT-4): −3%
% Growth (SU-DAL-7; SU-DAL-7, 10^−4 molar): −42%
% Growth (SU-DAL-7; SU-DAL-7, 10^−5 molar): 29%
% Growth (SU-DAL-7; SU-DAL-7, 10^−6 molar): 57%
percent of growth of human tumor cells (M14): 23%
% Growth (HOP-92; HOP-92, 10^−4 molar): 18%
% Growth (HOP-92; HOP-92, 10^−5 molar): 41%
% Growth (HOP-92; HOP-92, 10^−6 molar): 29%
% Growth (HOP-92; HOP-92, 10^−7 molar): 51%
% Growth (HOP-92; HOP-92, 10^−8 molar): 56%
percent of growth of human tumor cells (NCI-H460): 14%
percent of growth of human tumor cells (RPMI-8226): −42%
percent of growth of human tumor cells (786-0): 22%
percent of growth of human tumor cells (SK-MEL-5): −28%
% Growth (PA682; PA682, 10^−4 molar): −34%
% Growth (PA682; PA682, 10^−5 molar): 18%
percent of growth of human tumor cells (MDA-MB-231/ATCC): 30%
% Growth (RL; 10^−4 molar): −45%
% Growth (RL; 10^−5 molar): 41%
% Growth (AS283; AS283, 10^−4 molar): −25%
% Growth (AS283; AS283, 10^−5 molar): 15%
% Growth (AS283; AS283, 10^−6 molar): 58%
% Growth (AS283; AS283, 10^−7 molar): 54%
% Growth (HOP-18; HOP-18, 10^−4 molar): 18%
% Growth (HOP-18; HOP-18, 10^−5 molar): 41%
% Growth (HOP-18; HOP-18, 10^−6 molar): 29%
% Growth (HOP-18; HOP-18, 10^−7 molar): 51%
% Growth (HOP-18; HOP-18, 10^−8 molar): 58%
percent of growth of human tumor cells (OVCAR-8): −33%
percent of growth of human tumor cells (MCF7/ADR-RES): 15%
percent of growth of human tumor cells (SF-295): 0%
